One molecule from article PMC3515450, “Mechanistic and Structural Understanding of Uncompetitive Inhibitors of Caspase-6” (PLoS ONE, 2012) can be followed below.

This test deals with T1, caspase-6/(VEID)2R110 Michaelis complex (Homo sapiens, UniProt P55212, C163A).
T1 construct: Avi-tagged zymogen C163A-caspase-6 was processed to mature C163A-caspase-6 by the addition of active caspase-3 and caspase-6; made in house
T1 sequence (P55212 24-179 C163A): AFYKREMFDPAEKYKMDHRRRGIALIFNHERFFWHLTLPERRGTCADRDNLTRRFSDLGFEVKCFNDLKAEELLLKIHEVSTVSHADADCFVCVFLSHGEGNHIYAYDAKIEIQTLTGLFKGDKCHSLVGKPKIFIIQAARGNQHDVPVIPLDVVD
T1 sequence (P55212 194-293): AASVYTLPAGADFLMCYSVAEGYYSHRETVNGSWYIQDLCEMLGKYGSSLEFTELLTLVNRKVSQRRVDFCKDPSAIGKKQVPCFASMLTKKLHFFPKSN
As to the kind of experiment: SPR co-injection with (VEID)2R110 over apo- and C163A-caspase-6. In kind it is binding. Particulars: co-injected with (VEID)2R110, dissociation of both compound and substrate, read-out: apparent KD. The protocol: For SPR experiments, caspase-6 was cloned to include a C-terminal avi-tag (Avidity) and expressed and purified as above, except that biotin ligase (BirA) was co-expressed during fermentation. […] Avi-tagged zymogen C163A-caspase-6 was processed to mature C163A-caspase-6 by the addition of active caspase-3 and caspase-6. Chip preparation for neutravidin-based capture was performed as previously described using either a Biacore T100 or Biacore 3000 instrument (GE Healthcare). Running buffer was 50 mM HEPES pH 7.2, 100 mM MgSO4, 30 mM NaCl, 1 mM TCEP, 0.01% Triton X-100, 1% PEG-3350, 2.5% DMSO, and the instrument was set for 20 degrees C. After capture one flow cell of apo-caspase-6 was exposed to a continuous flow of 20 µM VEID-FMK. A rise in signal could be detected for the binding/reacting of the VEID-FMK and exposure was continued until no additional rise in response was observed (∼45 minutes) indicating full saturation of all binding sites. There was no observed decrease in signal upon washing, indicating the reaction was irreversible. […] Fluorescent substrates were too limiting in solubility and quantity to be added to the running buffer, so substrates were mixed at a concentration equal to their Kmapp with 3 and injected together over the indicated surfaces. […]

In the case of `COc1ccc(-c2cc(C(=O)N[C@@H](CO)Cc3cccc(C#N)c3)co2)cc1OC` [Compound 3], the Kd was about 200 nM.
